Results published in patent US12077503B2, “Substituted cyclic amides and their use as herbicides” (FMC CORPORATION, priority 2015, dated 2024).

Tests used:
Type in all cases: in vivo
[1] = test system: corn (Zea mays); assay: Test A postemergence; conditions: for Corn plant response rating: 125 g ai/ha, postemergence, visual injury rating on 0 to 100 scale (0 no effect, 100 complete control), approx. 10 d; for Plant response rating, Corn: Postemergence, 500 g ai/ha, 0 to 100 scale where 0 is no effect and 100 is complete control
Description: (§1) Seeds of plant species selected from barnyardgrass (Echinochloa crus-galli), Kochia (Kochia scoparia), ragweed (common ragweed, Ambrosia elatior), ryegrass, Italian (Italian ryegrass, Lolium multiflorum), crabgrass, large (Digitaria sanguinalis), giant foxtail (Setaria faberii), green foxtail (Setaria viridis), morningglory (Ipomoea spp.), pigweed (Amaranthus retroflexus), velvetleaf (Abutilon theophrasti), wheat (Triticum aestivum), and corn (Zea mays) were planted into a blend of loam soil and sand and treated preemergence with a directed soil spray using test chemicals formulated in anon-phytotoxic solvent mixture which included a surfactant.
(§2) At the same time, plants selected from these crop and weed species and also blackgrass (Alopecurus myosuroides), and Galium (catchweed bedstraw, Galium aparine) were planted in pots containing the same blend of loam soil and sand and treated with postemergence applications of test chemicals formulated in the same manner. Plants ranged in height from 2 to 10 cm and were in the one- to two-leaf stage for the postemergence treatment. Treated plants and untreated controls were maintained in a greenhouse for approximately 10 d, after which time all treated plants were compared to untreated controls and visually evaluated for injury. Plant response ratings, summarized in Table A, are based on a 0 to 100 scale where 0 is no effect and 100 is complete control. A dash (-) response means no test result.

[2] = test system: wheat (Triticum aestivum); assay: Test A postemergence; conditions: for Wheat plant response rating: 125 g ai/ha, postemergence, visual injury rating on 0 to 100 scale (0 no effect, 100 complete control), approx. 10 d; for Plant response rating, Wheat: Postemergence, 500 g ai/ha, 0 to 100 scale where 0 is no effect and 100 is complete control
Description: as §1, §2

[3] = test system: giant foxtail (Setaria faberii); assay: Test A postemergence; conditions: for Foxtail, Giant plant response rating: 125 g ai/ha, postemergence, visual injury rating on 0 to 100 scale (0 no effect, 100 complete control), approx. 10 d; for Plant response rating, Foxtail, Giant: Postemergence, 500 g ai/ha, 0 to 100 scale where 0 is no effect and 100 is complete control
Description: as §1, §2

[4] = test system: ryegrass, Italian (Italian ryegrass, Lolium multiflorum); assay: Test A postemergence; conditions: for Ryegrass, Italian plant response rating: 125 g ai/ha, postemergence, visual injury rating on 0 to 100 scale (0 no effect, 100 complete control), approx. 10 d; for Plant response rating, Ryegrass, Italian: Postemergence, 500 g ai/ha, 0 to 100 scale where 0 is no effect and 100 is complete control
Description: as §1, §2

[5] = test system: blackgrass (Alopecurus myosuroides); assay: Test A postemergence; conditions: for Blackgrass plant response rating: 125 g ai/ha, postemergence, visual injury rating on 0 to 100 scale (0 no effect, 100 complete control), approx. 10 d; for Plant response rating, Blackgrass: Postemergence, 500 g ai/ha, 0 to 100 scale where 0 is no effect and 100 is complete control
Description: as §1, §2

[6] = test system: Kochia (Kochia scoparia); assay: Test A postemergence; conditions: for Kochia plant response rating: 125 g ai/ha, postemergence, visual injury rating on 0 to 100 scale (0 no effect, 100 complete control), approx. 10 d; for Plant response rating, Kochia: Postemergence, 500 g ai/ha, 0 to 100 scale where 0 is no effect and 100 is complete control
Description: as §1, §2

[7] = test system: Galium (catchweed bedstraw, Galium aparine); assay: Test A postemergence; conditions: for Galium plant response rating: 125 g ai/ha, postemergence, visual injury rating on 0 to 100 scale (0 no effect, 100 complete control), approx. 10 d; for Plant response rating, Galium: Postemergence, 500 g ai/ha, 0 to 100 scale where 0 is no effect and 100 is complete control
Description: as §1, §2

[8] = test system: pigweed (Amaranthus retroflexus); assay: Test A postemergence; conditions: for Pigweed plant response rating: 125 g ai/ha, postemergence, visual injury rating on 0 to 100 scale (0 no effect, 100 complete control), approx. 10 d; for Plant response rating, Pigweed: Postemergence, 500 g ai/ha, 0 to 100 scale where 0 is no effect and 100 is complete control
Description: as §1, §2

[9] = test system: ragweed (common ragweed, Ambrosia elatior); assay: Test A postemergence; conditions: for Ragweed plant response rating: 125 g ai/ha, postemergence, visual injury rating on 0 to 100 scale (0 no effect, 100 complete control), approx. 10 d; for Plant response rating, Ragweed: Postemergence, 500 g ai/ha, 0 to 100 scale where 0 is no effect and 100 is complete control
Description: as §1, §2

[10] = test system: barnyardgrass (Echinochloa crus-galli); assay: Test A postemergence; conditions: for Barnyardgrass plant response rating: 125 g ai/ha, postemergence, visual injury rating on 0 to 100 scale (0 no effect, 100 complete control), approx. 10 d; for Plant response rating, Barnyardgrass: Postemergence, 500 g ai/ha, 0 to 100 scale where 0 is no effect and 100 is complete control
Description: as §1, §2

[11] = test system: rice (Oryra sativa); assay: Test B flooded paddy test; conditions: Flood, 250 g ai/ha; 0 to 100 scale where 0 is no effect and 100 is complete control; 13 to 15 d
How it was run: (§3)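 Flooding to 3 cm over soil accompanied treatment, which consisted of adding compound to the standing water around 2-leaf plants; depth was then maintained. Visual assessment versus controls followed at 13 to 15 d (scale 0–100, 0 meaning no effect).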

[12] = test system: sedge, umbrella (small-flower umbrella sedge, Cyperus difformis); assay: Test B flooded paddy test; conditions: Flood, 250 g ai/ha; 0 to 100 scale where 0 is no effect and 100 is complete control; 13 to 15 d
How it was run: as §3

[13] = test system: ducksalad (Heteranthera limosa); assay: Test B flooded paddy test; conditions: Flood, 250 g ai/ha; 0 to 100 scale where 0 is no effect and 100 is complete control; 13 to 15 d
How it was run: as §3

[14] = test system: barnyardgrass (Echinochloa crus-galli); assay: Test B flooded paddy test; conditions: Flood, 250 g ai/ha; 0 to 100 scale where 0 is no effect and 100 is complete control; 13 to 15 d
How it was run: as §3

[15] = test system: giant foxtail (Setaria faberii); assay: Test A preemergence; conditions: Preemergence; for Plant response rating, Foxtail, Giant: 125 g ai/ha, visual injury after approximately 10 d, 0 to 100 scale where 0 is no effect and 100 is complete control; for Foxtail, Giant plant response rating (0 to 100 scale, 0 is no effect, 100 is complete control): 500 g ai/ha, visual injury approx. 10 d
Description: as §1, §2

[16] = test system: ryegrass, Italian (Italian ryegrass, Lolium multiflorum); assay: Test A preemergence; conditions: Preemergence; for Plant response rating, Ryegrass, Italian: 125 g ai/ha, visual injury after approximately 10 d, 0 to 100 scale where 0 is no effect and 100 is complete control; for Ryegrass, Italian plant response rating (0 to 100 scale, 0 is no effect, 100 is complete control): 500 g ai/ha, visual injury approx. 10 d
Description: as §1, §2

[17] = test system: Kochia (Kochia scoparia); assay: Test A preemergence; conditions: Preemergence; for Plant response rating, Kochia: 125 g ai/ha, visual injury after approximately 10 d, 0 to 100 scale where 0 is no effect and 100 is complete control; for Kochia plant response rating (0 to 100 scale, 0 is no effect, 100 is complete control): 500 g ai/ha, visual injury approx. 10 d
Description: as §1, §2

[18] = test system: pigweed (Amaranthus retroflexus); assay: Test A preemergence; conditions: Preemergence; for Plant response rating, Pigweed: 125 g ai/ha, visual injury after approximately 10 d, 0 to 100 scale where 0 is no effect and 100 is complete control; for Pigweed plant response rating (0 to 100 scale, 0 is no effect, 100 is complete control): 500 g ai/ha, visual injury approx. 10 d
Description: as §1, §2

[19] = test system: ragweed (common ragweed, Ambrosia elatior); assay: Test A preemergence; conditions: Preemergence; for Plant response rating, Ragweed: 125 g ai/ha, visual injury after approximately 10 d, 0 to 100 scale where 0 is no effect and 100 is complete control; for Ragweed plant response rating (0 to 100 scale, 0 is no effect, 100 is complete control): 500 g ai/ha, visual injury approx. 10 d
Description: as §1, §2

[20] = test system: barnyardgrass (Echinochloa crus-galli); assay: Test A preemergence; conditions: Preemergence; for Plant response rating, Barnyardgrass: 125 g ai/ha, visual injury after approximately 10 d, 0 to 100 scale where 0 is no effect and 100 is complete control; for Barnyardgrass plant response rating (0 to 100 scale, 0 is no effect, 100 is complete control): 500 g ai/ha, visual injury approx. 10 d
Description: as §1, §2

Compound	Corn plant response rating [1]	Plant response rating, Corn [1]	Wheat plant response rating [2]	Plant response rating, Wheat [2]	Foxtail, Giant plant response rating [3]	Plant response rating, Foxtail, Giant [3]	Ryegrass, Italian plant response rating [4]	Plant response rating, Ryegrass, Italian [4]	Blackgrass plant response rating [5]	Plant response rating, Blackgrass [5]	Kochia plant response rating [6]	Plant response rating, Kochia [6]	Galium plant response rating [7]	Plant response rating, Galium [7]	Pigweed plant response rating [8]	Plant response rating, Pigweed [8]	Ragweed plant response rating [9]	Plant response rating, Ragweed [9]	Barnyardgrass plant response rating [10]	Plant response rating, Barnyardgrass [10]	further results
O=C1NCC(c2ccc(C(F)(F)F)c(F)c2)C1C(=O)Nc1cccc(F)c1F (racemic) [Compound 504]	70	70	20	60	90	90	40	40	40	60	30	60	70	70	60	70	30	40	80	90	Plant response rating, Rice [11]: 0; Plant response rating, Sedge, Umbrella [12]: 0; Plant response rating, Ducksalad [13]: 80; Plant response rating, Barnyardgrass [14]: 40; Plant response rating, Foxtail, Giant [15]: 90; Foxtail, Giant plant response rating (0 to 100 scale, 0 is no effect, 100 is complete control) [15]: 90; Plant response rating, Ryegrass, Italian [16]: 40; Ryegrass, Italian plant response rating (0 to 100 scale, 0 is no effect, 100 is complete control) [16]: 70; Plant response rating, Kochia [17]: 80; Kochia plant response rating (0 to 100 scale, 0 is no effect, 100 is complete control) [17]: 80; Plant response rating, Pigweed [18]: 80; Pigweed plant response rating (0 to 100 scale, 0 is no effect, 100 is complete control) [18]: 100; Plant response rating, Ragweed [19]: 40; Ragweed plant response rating (0 to 100 scale, 0 is no effect, 100 is complete control) [19]: 50; Plant response rating, Barnyardgrass [20]: 90; Barnyardgrass plant response rating (0 to 100 scale, 0 is no effect, 100 is complete control) [20]: 90
O=C1NCC(c2ccnc(C(F)(F)F)c2)C1C(=O)Nc1ccccc1F (racemic) [Compound 513]	20	60	0	30	80	80	0	30	20	40	20	50	0	40	30	60	10	20	80	90	Plant response rating, Rice [11]: 30; Plant response rating, Sedge, Umbrella [12]: 0; Plant response rating, Ducksalad [13]: 90; Plant response rating, Barnyardgrass [14]: 30; Plant response rating, Foxtail, Giant [15]: 90; Foxtail, Giant plant response rating (0 to 100 scale, 0 is no effect, 100 is complete control) [15]: 90; Plant response rating, Ryegrass, Italian [16]: 20; Ryegrass, Italian plant response rating (0 to 100 scale, 0 is no effect, 100 is complete control) [16]: 30; Plant response rating, Kochia [17]: 0; Kochia plant response rating (0 to 100 scale, 0 is no effect, 100 is complete control) [17]: 20; Plant response rating, Pigweed [18]: 0; Pigweed plant response rating (0 to 100 scale, 0 is no effect, 100 is complete control) [18]: 0; Plant response rating, Ragweed [19]: 0; Ragweed plant response rating (0 to 100 scale, 0 is no effect, 100 is complete control) [19]: 0; Plant response rating, Barnyardgrass [20]: 40; Barnyardgrass plant response rating (0 to 100 scale, 0 is no effect, 100 is complete control) [20]: 90
